Values of other authors as cited in patent publication US8552052B2, “Use of diindolylmethane-related indoles for the treatment and prevention of respiratory syncytial virus associated conditions” (BioResponse, L.L.C., priority 2004, dated 2013).

Test system: RSV
Conditions: monthly intramuscular injections; cited from earlier work

Palivizumab: IgG1 monoclonal antibody that selectively binds to the RSV surface glycoprotein F
reduction of the rate of hospitalization of at-risk infants: about 55%
